From patent publication US7790732B2, “5-Chloro-4-alkyl-3,4-dihydro-quinazolin-2-ylamine derivatives” (Hoffman-La Roche Inc., priority 2005, dated 2010)
pKi: −log10 of the molar value.

target: T1, recombinant human 5-HT5A receptor (Homo sapiens, UniProt P47898); experiment: [3H]LSD radioligand binding assay, recombinant human 5-HT5A receptor in HEK-EBNA cell membranes; settings: [3H]LSD approximately 1 nM; membranes from HEK-EBNA cells; Ki from IC50 by the Cheng-Prussoff equation
T1 construct: expressed in transfected cells; host or cells: HEK-EBNA (Human Embryonic Kidney-EBNA) cells, transient cDNA expression, membranes
Experimental: A [^3H] LSD radioligand binding assay was used to determine the affinity of the compounds for the recombinant human 5-HT5A receptor in membranes from transiently (cDNA) expressed 5-HT5A receptors in Human Embryonic Kidney-EBNA (HEK-EBNA) cells. Assay buffer consisted of Tris (50 mM) buffer containing 1 mM EGTA, 10 mM MgCl2 (pH 7.4) and 10 μM pargyline. The binding assay was carried out in 96-well-plates in the presence of [^3H]LSD (approximately 1 nM), approximately 2 μg/well of membrane protein, and 0.5 mg of Ysi-poly-1-lysine SPA beads in a final volume of 200 μl of buffer. Non-specific binding was defined using methiothepin 2 μM. Compounds were tested at 10 concentrations. All assays were conducted in duplicate and repeated at least two times. Assay plates were incubated for 120 min at room temperature before centrifugation. Bound ligand was determined using a Packard Topcount scintillation counter. IC50 values were calculated using a non-linear curve fitting program, and Ki values were calculated using the Cheng-Prussoff equation.

T1 sequence (P47898 whole entry): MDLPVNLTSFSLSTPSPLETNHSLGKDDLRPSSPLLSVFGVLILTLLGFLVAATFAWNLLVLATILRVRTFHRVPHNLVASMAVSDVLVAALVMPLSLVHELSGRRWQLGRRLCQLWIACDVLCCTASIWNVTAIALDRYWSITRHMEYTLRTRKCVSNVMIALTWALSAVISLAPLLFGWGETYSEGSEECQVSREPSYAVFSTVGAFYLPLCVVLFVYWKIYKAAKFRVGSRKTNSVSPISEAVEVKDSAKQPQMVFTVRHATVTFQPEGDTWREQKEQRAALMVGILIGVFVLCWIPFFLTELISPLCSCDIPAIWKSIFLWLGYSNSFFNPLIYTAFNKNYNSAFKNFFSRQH

pKi	SMILES
8.29	CC1NC(N)=Nc2cccc(Cl)c21 (stereo not shown) [Example 1, 5-Chloro-4-methyl-3,4-dihydro-quinazolin-2-ylamine]
8.05	CC(=O)NCCNC1=Nc2ccc(Cl)c(Cl)c2C(C)N1 (stereo not shown) [Example 16, N-[2-(5,6-Dichloro-4-methyl-3,4-dihydro-quinazolin-2-ylamino)-ethyl]-acetamide]
8.16	CC1NC(NC2CCC2)=Nc2ccc(Cl)c(Cl)c21 (stereo not shown) [Example 15, Cyclobutyl-(5,6-dichloro-4-methyl-3,4-dihydro-quinazolin-2-yl)-amine]
7.99	CC1NC(NCC(F)F)=Nc2cccc(Cl)c21 (stereo not shown) [Example 5, (5-Chloro-4-methyl-3,4-dihydro-quinazolin-2-yl)-(2,2-difluoro-ethyl)-amine]
8.20	CNC1=Nc2ccc(Cl)c(Cl)c2C(C)N1 (stereo not shown) [Example 9, (5,6-Dichloro-4-methyl-3,4-dihydro-quinazolin-2-yl)-methyl-amine]
8.23	CC1NC(N)=Nc2c(Cl)ccc(Cl)c21 (stereo not shown) [Example 23, 5,8-Dichloro-4-methyl-3,4-dihydro-quinazolin-2-ylamine]
7.75	CC1NC(NCC2COCCO2)=Nc2ccc(Cl)c(Cl)c21 (stereo not shown) [Example 21, (5,6-Dichloro-4-methyl-3,4-dihydro-quinazolin-2-yl)-[1,4]dioxan-2-ylmethyl-amine]
7.97	CNC1=Nc2cccc(Cl)c2C(C)N1 (stereo not shown) [Example 2, (5-Chloro-4-methyl-3,4-dihydro-quinazolin-2-yl)-methyl-amine]
8.70	CC1NC(N)=Nc2ccc(Cl)c(Cl)c21 (stereo not shown) [Example 8, 5,6-Dichloro-4-methyl-3,4-dihydro-quinazolin-2-ylamine]
8.16	COCCCNC1=Nc2ccc(Cl)c(Cl)c2C(C)N1 (stereo not shown) [Example 19, (5,6-Dichloro-4-methyl-3,4-dihydro-quinazolin-2-yl)-(3-methoxy-propyl)-amine]
7.86	CCCCCNC1=Nc2ccc(Cl)c(Cl)c2C(C)N1 (stereo not shown) [Example 18, (5,6-Dichloro-4-methyl-3,4-dihydro-quinazolin-2-yl)-pentyl-amine]
7.81	CC1NC(NC2CCC2)=Nc2cccc(Cl)c21 (stereo not shown) [Example 3, (5-Chloro-4-methyl-3,4-dihydro-quinazolin-2-yl)-cyclobutyl-amine]
8.25	CC1NC(NCC(F)F)=Nc2ccc(Cl)c(Cl)c21 (stereo not shown) [Example 10, (5,6-Dichloro-4-methyl-3,4-dihydro-quinazolin-2-yl)-(2,2-difluoro-ethyl)-amine]
